Laboratory results: ChEMBL document CHEMBL4304785, “Recent advances of analogues of curcumin for treatment of cancer” (Eur J Med Chem, 2019)

Experiments:
[1] = Cytotoxicity against human BCC cells after 72 hrs by MTT assay; format: functional, cell-based
A-375 = test: Cytotoxicity against human A375 cells after 72 hrs by MTT assay; format: functional, cell-based; details: A-375, 72 h
SCC-25 = test: Cytotoxicity against human SCC25 cells after 72 hrs by MTT assay; format: functional, cell-based; details: SCC-25, 72 h
A-431 = test: Cytotoxicity against human A431 cells after 72 hrs by MTT assay; format: functional, cell-based; details: A-431, 72 h
[2] = Cytotoxicity against […] cells after 72 hrs by MTT assay; format: functional, cell-based; details: B16, 72 h
[3] = molecular target: 72 kDa type IV collagenase (Homo sapiens) (UniProt P08253); test: Inhibition of MMP2 (unknown origin)
72 kDa type IV collagenase (Homo sapiens), sequence (P08253 110-660 limits assumed): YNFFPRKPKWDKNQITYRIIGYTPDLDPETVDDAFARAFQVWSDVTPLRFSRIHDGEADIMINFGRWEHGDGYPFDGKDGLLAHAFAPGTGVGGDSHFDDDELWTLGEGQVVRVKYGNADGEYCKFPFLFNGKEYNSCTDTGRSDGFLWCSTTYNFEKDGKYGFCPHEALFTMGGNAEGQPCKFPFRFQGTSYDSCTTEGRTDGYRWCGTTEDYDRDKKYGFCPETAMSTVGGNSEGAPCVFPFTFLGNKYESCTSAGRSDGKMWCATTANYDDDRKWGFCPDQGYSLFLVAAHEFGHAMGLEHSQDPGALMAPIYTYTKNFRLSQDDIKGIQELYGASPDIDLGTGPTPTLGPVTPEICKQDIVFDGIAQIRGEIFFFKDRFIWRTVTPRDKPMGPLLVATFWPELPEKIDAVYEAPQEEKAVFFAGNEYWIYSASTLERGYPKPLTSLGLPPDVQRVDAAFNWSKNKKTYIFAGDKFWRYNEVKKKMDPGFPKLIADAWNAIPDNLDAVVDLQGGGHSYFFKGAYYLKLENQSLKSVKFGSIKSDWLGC

U-251 = test: Antiproliferative activity against human U251 cells by MTT assay; format: functional, cell-based
SGC-7901 = test: Antiproliferative activity against human SGC7901 cells by MTT assay; format: functional, cell-based
NCI-H460 = test: Antiproliferative activity against human H460 cells by MTT assay; format: functional, cell-based
L02 = test: Antiproliferative activity against human HL7702 cells by MTT assay; format: functional, cell-based
CCD-841CoN = test: Cytotoxicity against human CRL1790 cells; format: functional, cell-based
[4] = Cytotoxicity against […] cells by MTT assay; format: functional, cell-based
[5] = Cytotoxicity against human HPL1D cells; format: functional, cell-based
[6] = Cytotoxicity against human SW116 cells after 4 hrs by MTT assay; format: functional, cell-based; details: SW116, 4 h
SW480 = test: Cytotoxicity against human SW480 cells after 4 hrs by MTT assay; format: functional, cell-based; details: SW480, 4 h
T47D = test: Cytotoxicity against human T47D cells; format: functional, cell-based
DLD-1 = test: Cytotoxicity against human DLD1 cells; format: functional, cell-based
HT-29 [7] = test: Cytotoxicity against human HT-29 cells after 4 hrs by MTT assay; format: functional, cell-based; details: HT-29, 4 h
MCF7 = test: Cytotoxicity against human MCF7 cells; format: functional, cell-based
EL4 = test: Induction of apoptosis in mouse EL4 cells at 50 umol/L after 72 hrs relative to control; format: functional
HT-29 [8] = test: Cytotoxicity against human HT-29 cells; format: functional, cell-based
HeLa = test: Cytotoxicity against human HeLa cells; format: functional, cell-based
HaCaT = test: Cytotoxicity against human HaCaT cells; format: functional, cell-based
BT-474 = test: Cytotoxicity against human BT474 cells; format: functional, cell-based
WiDr = test: Cytotoxicity against human WiDr cells after 4 hrs by MTT assay; format: functional, cell-based
HT-1080 = test: Decrease in UPA expression in human HT1080 cells; format: functional, cell-based
KM12 = test: Cytotoxicity against human KM12 cells after 4 hrs by MTT assay; format: functional, cell-based; details: KM12, 4 h
Colon 26 = test: Cytotoxicity against mouse Colon 26 cells after 4 hrs by MTT assay; format: functional, cell-based; details: Colon 26, 4 h
Hep 3B2 = test: Cytotoxicity against human Hep3B cells; format: functional, cell-based
SK-OV-3 [9] = test: Induction of apoptosis in human SKOV3 cells at 40 umol/L after 48 hrs by annexin-V-FITC/propidium iodide staining-based flow cytometric method relative to control; format: functional
MDA-MB-231 = test: Increase in MMP3 level in human MDA-MB-231 cells after 24 hrs by ELISA; format: functional, cell-based; details: MDA-MB-231, 24 h
SK-OV-3 [10] = test: Induction of apoptosis in human SKOV3 cells at 20 umol/L after 48 hrs by annexin-V-FITC/propidium iodide staining-based flow cytometric method relative to control; format: functional
SK-OV-3 [11] = test: Induction of apoptosis in human SKOV3 cells at 80 umol/L after 48 hrs by annexin-V-FITC/propidium iodide staining-based flow cytometric method relative to control; format: functional
Caco-2 [12] = test: Cytotoxicity against human Caco2 cells by MTT assay; format: functional, cell-based
DU-145 [13] = test: Cytotoxicity against human DU145 cells; format: functional, cell-based
PC-3 = test: Cytotoxicity against human PC3 cells; format: functional, cell-based
DU-145 [14] = test: Potentiation of PTX-induced anticancer activity in human DU145 cells assessed as reduction in PTX IC50 (reference value: 13.5 nmol/L); format: functional, cell-based
HepG2 = test: Cytotoxicity against human HepG2 cells by MTT/SRB assay; format: functional, cell-based
HT-29 [15] = test: Cytotoxicity against human HT-29 cells by MTT/SRB assay; format: functional, cell-based
Caco-2 [16] = test: Cytotoxicity against human Caco2 cells by MTT/SRB assay; format: functional, cell-based
CHO-K1 = test: Cytotoxicity against CHOK1 cells by MTT/SRB assay; format: functional, cell-based; details: Cricetulus griseus
[17] = molecular target: Fibroblast growth factor receptor 1 (Homo sapiens) (UniProt P11362); test: Inhibition of FGFR1 (unknown origin) relative to control; details: concentration not given here
Fibroblast growth factor receptor 1 (Homo sapiens), sequence (P11362 22-822 limits assumed): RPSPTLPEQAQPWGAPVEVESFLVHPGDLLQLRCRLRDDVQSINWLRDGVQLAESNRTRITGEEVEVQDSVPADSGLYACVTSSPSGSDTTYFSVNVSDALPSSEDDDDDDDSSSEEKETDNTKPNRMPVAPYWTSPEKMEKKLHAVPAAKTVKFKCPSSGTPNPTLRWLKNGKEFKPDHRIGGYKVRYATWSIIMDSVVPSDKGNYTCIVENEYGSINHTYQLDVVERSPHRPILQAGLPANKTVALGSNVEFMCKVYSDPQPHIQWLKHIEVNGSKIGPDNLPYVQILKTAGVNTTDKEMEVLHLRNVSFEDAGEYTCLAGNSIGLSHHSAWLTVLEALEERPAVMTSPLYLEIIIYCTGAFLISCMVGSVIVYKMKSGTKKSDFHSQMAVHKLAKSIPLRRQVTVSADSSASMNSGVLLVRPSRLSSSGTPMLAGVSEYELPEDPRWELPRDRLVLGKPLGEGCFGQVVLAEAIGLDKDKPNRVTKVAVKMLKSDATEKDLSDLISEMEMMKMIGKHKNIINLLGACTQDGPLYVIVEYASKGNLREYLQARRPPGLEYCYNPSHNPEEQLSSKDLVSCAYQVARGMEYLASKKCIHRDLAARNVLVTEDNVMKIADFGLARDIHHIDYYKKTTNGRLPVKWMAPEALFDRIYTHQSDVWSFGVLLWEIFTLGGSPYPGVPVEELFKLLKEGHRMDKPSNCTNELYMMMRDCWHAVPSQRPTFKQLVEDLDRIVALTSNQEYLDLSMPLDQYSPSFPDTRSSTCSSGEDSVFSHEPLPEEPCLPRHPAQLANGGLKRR

[18] = molecular target: Fibroblast growth factor receptor 2 (Homo sapiens) (UniProt P21802); test: Inhibition of FGFR2 (unknown origin) relative to control; details: concentration not given here
Fibroblast growth factor receptor 2 (Homo sapiens), sequence (P21802 22-821 limits assumed): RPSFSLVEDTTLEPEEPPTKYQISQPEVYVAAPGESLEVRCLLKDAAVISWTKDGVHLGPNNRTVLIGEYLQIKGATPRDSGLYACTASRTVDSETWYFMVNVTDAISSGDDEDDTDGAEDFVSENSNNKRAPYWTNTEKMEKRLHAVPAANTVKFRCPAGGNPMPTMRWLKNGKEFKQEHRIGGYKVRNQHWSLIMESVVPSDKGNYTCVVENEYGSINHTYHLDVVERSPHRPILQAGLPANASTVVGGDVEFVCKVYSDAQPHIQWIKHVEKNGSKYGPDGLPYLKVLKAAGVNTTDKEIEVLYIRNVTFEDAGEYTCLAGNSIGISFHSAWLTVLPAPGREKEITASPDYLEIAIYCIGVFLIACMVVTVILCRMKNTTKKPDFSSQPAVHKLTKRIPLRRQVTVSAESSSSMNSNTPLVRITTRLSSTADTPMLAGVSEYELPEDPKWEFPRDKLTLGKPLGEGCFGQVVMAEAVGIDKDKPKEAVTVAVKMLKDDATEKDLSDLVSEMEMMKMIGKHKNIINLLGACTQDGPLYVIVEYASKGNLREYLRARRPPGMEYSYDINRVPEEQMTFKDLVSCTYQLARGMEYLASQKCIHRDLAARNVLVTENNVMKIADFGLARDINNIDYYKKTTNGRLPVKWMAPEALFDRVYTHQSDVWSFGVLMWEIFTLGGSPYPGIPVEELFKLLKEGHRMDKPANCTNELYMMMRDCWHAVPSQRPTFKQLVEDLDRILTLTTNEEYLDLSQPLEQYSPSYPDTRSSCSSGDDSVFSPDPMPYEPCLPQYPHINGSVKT

TT = test: Cytotoxicity against human TT cells by trypan blue dye-based assay; format: functional, cell-based

`COc1cc(CCC(=O)CCCCc2ccccc2)ccc1O` gave an IC50 [1] of 11.3 µM, an IC50 (A-375) of 23.8 µM and an IC50 (SCC-25) of 18.7 µM. For the same compound, the IC50 (A-431) was 13.3 µM and the IC50 [2] was 40 µM.

In the case of `CCCCC[C@H](O)CC(=O)CCc1ccc(O)c(OC)c1`, the INH [3] is reported as greater than 10 µmol/L.

With `O=C1/C(=C/c2ccccc2F)CNC/C1=C\c1ccccc1F` the IC50 (U-251) was 4.5 µM, the IC50 (SGC-7901) was 6.5 µM and the IC50 (NCI-H460) was 6 µM. The IC50 (L02) was 5.8 µM.

`COc1cc(/C=C/C(=O)CC(=O)/C=C/c2ccc(O)c(OC)c2)ccc1O` [CURCUMIN] gave an IC50 (CCD-841CoN) of 105 µM, an IC50 [4] of 8.5 µM and an IC50 [5] of 16 µM. For the same compound, the IC50 [6] was 27.5 µM, the IC50 (SW480) was 17.9 µM and the IC50 (T47D) was 11 µM. It also gave an IC50 (DLD-1) of 146 µM, an IC50 (HT-29 [7]) of 20.7 µM and an IC50 (MCF7) of 19.9 µM. It also gave an Activity (EL4) of 95%, an IC50 (HT-29 [8]) of 132 µM and an IC50 (HeLa) of 8.2 µM. It also gave an IC50 (HaCaT) of 13 µM, an IC50 (BT-474) of 11 µM and an IC50 (WiDr) of 26.8 µM. It also gave an IC50 (HT-1080) of 10 µM, an IC50 (KM12) of 16 µM and an IC50 (Colon 26) of 30.3 µM. For the same compound, the IC50 (Hep 3B2) was 10 µM.

`COc1cc(/C=C/C(=O)CC(=O)/C=C/c2ccc(O)cc2)ccc1O` showed an Activity (SK-OV-3 [9]) of 51.5%, an IC50 (MDA-MB-231) of 9 µM and an Activity (SK-OV-3 [10]) of 35.1%. It also gave an Activity (SK-OV-3 [11]) of 70.7% and an IC50 (HT-1080) of 7.5 µM.

`CCOC(=O)CCC(=O)Oc1ccc(/C=C/C(=O)/C=C(O)/C=C/c2ccc(OC(=O)CCC(=O)OCC)c(OC)c2)cc1OC` gave an IC50 (Caco-2 [12]) of 1.84 µM.

`C/C1=C\CC(C)(C)/C=C/C(=O)/C(C)=C/CC1` [ZERUMBONE] showed an IC50 (DU-145 [13]) of 6.9 µM, an IC50 (PC-3) of 9.1 µM and an IC50 (DU-145 [14]) of 0.0055 µM.

`O=C(/C=C(O)/C=C/c1c[nH]c2ccccc12)/C=C/c1c[nH]c2ccccc12` showed an IC50 (HepG2) of 3.3 to 12.1 µM, an IC50 (HT-29 [15]) of 3.3 to 12.1 µM and an IC50 (Caco-2 [16]) of 3.3 to 12.1 µM. The IC50 (CHO-K1) was 3.3 to 12.1 µM.

For `COc1cc(/C=C/C(=O)O)ccc1O` [FERULATE], the inhibition [17] was 92%, the inhibition [18] was 64% and the IC50 (TT) was 150 µM.
